Source: paper PMC1892040 (PLoS Medicine, 2007)
Read-outs that look alike come from different tables or passages of the source.

How the values were obtained:
[1] = biological target: T1, S. mansoni TGR (Schistosoma mansoni, UniProt Q962Y6); format: biochemical; design: The entire TGR ORF plus the SECIS element was subcloned into pET-24a; made in house; host or cells: Escherichia coli BL21(DE3) with pSUABC; conditions: read-out: IC50 S. mansoni TGR, DTNB (TrxR activity); 3 mM DTNB, 15 min preincubation with 100 μM NADPH
T1 sequence (Q962Y6 1-598): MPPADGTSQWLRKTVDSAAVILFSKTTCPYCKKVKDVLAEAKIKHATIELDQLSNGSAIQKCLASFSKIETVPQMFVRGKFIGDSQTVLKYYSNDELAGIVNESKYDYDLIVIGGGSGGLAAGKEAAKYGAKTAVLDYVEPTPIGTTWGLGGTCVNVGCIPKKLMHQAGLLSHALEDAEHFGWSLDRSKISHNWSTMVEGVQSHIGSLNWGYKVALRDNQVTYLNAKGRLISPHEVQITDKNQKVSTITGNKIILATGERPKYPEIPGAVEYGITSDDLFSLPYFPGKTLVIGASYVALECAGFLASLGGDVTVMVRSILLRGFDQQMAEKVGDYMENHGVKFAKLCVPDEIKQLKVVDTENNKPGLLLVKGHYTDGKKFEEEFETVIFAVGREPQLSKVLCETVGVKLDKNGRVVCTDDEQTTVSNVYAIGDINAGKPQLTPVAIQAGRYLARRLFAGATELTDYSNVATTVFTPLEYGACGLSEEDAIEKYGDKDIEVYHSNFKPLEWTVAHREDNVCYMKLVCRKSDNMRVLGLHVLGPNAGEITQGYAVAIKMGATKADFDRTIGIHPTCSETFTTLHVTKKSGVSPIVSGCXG
Experimental: (§1) Assays were performed at 25 °C in 0.1 M potassium phosphate (pH 7.4), 10 mM EDTA using 100 μM NADPH unless otherwise stated.
(§2) Initial inhibitor screens were conducted in 200 μl volumes in 96 well plates with 50 μM inhibitor, 100 μM NADPH, and 5 nM TGR in 0.1 M potassium phosphate (pH 7.4), 10 mM EDTA with a preincubation step of 15 min. […] All assays were done in triplicate.

[2] = biological target: T1, S. mansoni TGR; format: biochemical; design: The entire TGR ORF plus the SECIS element was subcloned into pET-24a; made in house; host or cells: Escherichia coli BL21(DE3) with pSUABC; conditions: read-out: IC50 S. mansoni TGR, GSSG (GR activity); 100 μM GSSG, 15 min preincubation with 100 μM NADPH
Experimental: as §1, §2

[3] = biological target: T2, Human TrxR (Homo sapiens, UniProt Q16881); conditions: read-out: IC50 Human TrxR, DTNB/Trx; cited from earlier work
T2 sequence (Q16881 1-499 isoform Q16881-5): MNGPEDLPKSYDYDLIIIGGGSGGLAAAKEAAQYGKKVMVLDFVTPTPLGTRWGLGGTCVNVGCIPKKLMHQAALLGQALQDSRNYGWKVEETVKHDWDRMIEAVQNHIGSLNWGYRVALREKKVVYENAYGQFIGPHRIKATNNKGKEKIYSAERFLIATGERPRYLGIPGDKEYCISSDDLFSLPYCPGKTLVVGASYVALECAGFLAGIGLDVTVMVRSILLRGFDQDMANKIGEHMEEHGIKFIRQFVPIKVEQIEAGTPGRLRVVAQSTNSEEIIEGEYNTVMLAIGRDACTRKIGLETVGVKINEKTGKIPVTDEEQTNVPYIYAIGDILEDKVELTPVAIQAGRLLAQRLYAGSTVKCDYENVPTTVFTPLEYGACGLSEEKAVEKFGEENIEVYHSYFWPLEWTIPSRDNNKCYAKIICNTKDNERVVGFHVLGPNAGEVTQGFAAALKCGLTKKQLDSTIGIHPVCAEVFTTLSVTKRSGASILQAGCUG

[4] = biological target: T1, S. mansoni TGR
Experimental: as §1, §2

[5] = biological target: T1, S. mansoni TGR; test: IC50, Grx activity of TGR (HED assay), 15 min preincubation; format: biochemical; design: The entire TGR ORF plus the SECIS element was subcloned into pET-24a; made in house; host or cells: Escherichia coli BL21(DE3) with pSUABC; conditions: 8 mM HED plus 1 mM GSH, 15 min preincubation with 100 μM NADPH
Experimental: as §1, §2

[6] = system: Human TGR; conditions: cited from earlier work; for Specific activity, Human TGR: NADPH + substrate; for Km: read-out: Apparent Km, Human TGR
[7] = system: Human TrxR1; conditions: cited from earlier work; for Specific activity, Human TrxR1: NADPH + substrate, ND, no activity detected; for Km: read-out: Apparent Km, Human TrxR1
[8] = biological target: T1, S. mansoni TGR; test: Kinetic analysis of recombinant S. mansoni TGR with substrates; conditions: for Specific activity, S. mansoni TGR: NADPH + substrate; for Specific activity of recombinant TGR with substrate: Trx coupled to insulin reduction, HED in Grx assay
Experimental: Kinetic parameters were determined using Lineweaver–Burk plots using KaleidaGraph 4 (Synergy Software, http://www.synergy.com) least squares best fit of data and varying concentrations of one substrate while maintaining the concentration of other substrates. […] All assays were done in triplicate.

[9] = substrate of TGR (20 nM), 25 °C, pH 7.4, 100 μM NADPH
[10] = substrate of TGR (20 nM), 25 °C, pH 7.4, 100 μM NADPH, ± SD
[11] = read-out: Apparent Km, S. mansoni TGR

For CN(C)CCC(=O)c1ccccc1 [Compound 3-DAP], the IC50 [1] was 500 nM and the IC50 [2] was 7000 nM.

In the case of O=C(O)CC([S-])C(=O)O.[Au+] (centres unmarked) [Aurothiomalate], the IC50 [1] is given as 90 nM, the IC50 [3] is given as 280 nM and the activity [4] is given as 0%. The IC50 [2] was 50 nM and the IC50 [5] was 50 nM.

For O=C1C=CC(=O)c2c(O)ccc(O)c21 [Naphthazarin], the IC50 [3] is listed as 650 nM.

Work on O=C1C=CC(=O)c2ccccc21 [Compound M5] yielded an activity [4] of 37%.

For Cc1cc2nc3cc(C)c(N)cc3[n+](-c3ccccc3)c2cc1N [Safranin], the activity [4] was 75%.

In the case of O=C(O)c1cc(SSc2ccc([N+](=O)[O-])c(C(=O)O)c2)ccc1[N+](=O)[O-] [DTNB, 5,5′-dithiobis(2-nitrobenzoic acid)], the “Specific activity, Human TGR” value [6] is listed as 3.1 µmol/min/mg, the “Apparent kcat, Human TGR” value [6] is listed as 6.5 s⁻¹ and the Km [6] is listed as 14.7 µM. For the same molecule, the “Specific activity, Human TrxR1” value [7] was 25 µmol/min/mg, the “Apparent kcat, Human TrxR1” value [7] was 86 s⁻¹ and the Km [7] was 212 µM. For the same molecule, the “Specific activity, S. mansoni TGR” value [8] was 10.2 µmol/min/mg, the “Specific activity of recombinant TGR with substrate” value (“Specific activity … with substrate” for short) [8] was 10.2 U/mg and the kcat [8, 9] was 16 s⁻¹. The Km [8, 10] was 114 ± 9 µM and the Vmax [8, 10] was 19.2 ± 1.6 µM/min.

Molecule O=[Se]([O-])[O-].[Na+].[Na+] [Na2SeO3, sodium selenite] has a kcat [8, 9] of 2.1 s⁻¹, a Km [8, 10] of 66.7 ± 6.9 µM and a Vmax [8, 10] of 2.54 ± 0.046 µM/min.

In the case of OCCSSCCO [HED, β-hydroxyethyl disulfide], the “Specific activity, Human TGR” value [6] is listed as 1.9 µmol/min/mg, the “Apparent kcat, Human TGR” value [6] is listed as 1.2 s⁻¹ and the Km [6] is listed as 45.2 µM. The “Apparent kcat, S. mansoni TGR” value [8] was 17.8 s⁻¹, the “Specific activity, S. mansoni TGR” value [8] was 9.9 µmol/min/mg and the “Specific activity … with substrate” value [8] was 9.9 U/mg. The Km [8, 11] was 1870 µM, the kcat [8, 9] was 17.8 s⁻¹ and the Km [8, 10] was 1870 µM. It also gave a Vmax [8, 10] of 21.4 ± 0.33 µM/min.

O=C(O)CCCC[C@@H]1CCSS1 (racemic) [Lipoic acid] gave a kcat [8, 9] of 1.7 s⁻¹, a Km [8, 10] of 2610 µM and a Vmax [8, 10] of 2.03 ± 0.135 µM/min.

B1: Trx: 12 kDa protein thioredoxin, substrate of TrxR and TGR enzymes (protein, UniProt P10599 2-105, looked up)
Thioredoxin: VKQIESKTAFQEALDAAGDKLVVVDFSATWCGPCKMIKPFFHSLSEKYSNVIFLEVDVDDCQDVASECEVKCMPTFQFFKKGQKVGEFSGANKEKLEATINELV
For B1, the “Specific activity, Human TGR” value [6] is given as 4.2 µmol/min/mg, the “Apparent kcat, Human TGR” value [6] is given as 5.7 s⁻¹ and the Km [6] is given as 3 µM. For the same molecule, the “Specific activity, Human TrxR1” value [7] was 5.9 µmol/min/mg, the “Apparent kcat, Human TrxR1” value [7] was 9.8 s⁻¹ and the Km [7] was 4.73 µM. For the same molecule, the “Apparent kcat, S. mansoni TGR” value [8] was 30 s⁻¹, the “Specific activity, S. mansoni TGR” value [8] was 2.2 µmol/min/mg and the “Specific activity … with substrate” value [8] was 2.2 U/mg. It also gave a Km [8, 11] of 6.37 µM.
